Our source for the melting point and IC50 values is US20090004185A1, “AMINO-SUBSTITUTED QUINAZOLINE DERIVATIVES AS INHIBITORS OF BETA-CATENIN/TCF-4 PATHWAY AND CANCER TREATMENT AGENTS” (WYETH, priority 2007, published 2009).

One data set has as its system β-catenin/Tcf-4. The data set can be described thus: cells. Format: cell-based. The note with it: Homo sapiens, 24 hours of incubation with compound, ratio Firefly/Renilla luciferase. The method in brief:
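SW480-derived lines with integrated reporters (Tcf-4-driven firefly luciferase; SV40 firefly as specificity control; SV40 Renilla for cell number/toxicity), treated 24 hours with titrated compounds, final 0.316% DMSO. Dual-luciferase read-out; firefly/Renilla ratio as % of control, duplicate plates, IC50 (nM) from curve fit.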

A further data set relates to SV40-Luc. The data set is described as follows: SV40-Luc control luciferase reporter assay, SV 5A8 cell line (SV40-Luc and SV40-R-Luc), control for non-specific inhibitors. The note with it: Homo sapiens, SV5A8, 24 h, SV 5A8 cells derived from SW480; 24 hours of incubation with compound; ratio Firefly/Renilla luciferase. The class given is cell-based, human. An outline of the steps:
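Compound exposure lasted 24 h, starting 20-24 h after seeding 1×10^4 cells/well, with titrated doses and 0.316% final DMSO. Readout was dual firefly/Renilla luminescence; Renilla under an SV40 promoter corrects for cell number and toxicity, and SV 5A8 (SV40 firefly) flags non-specific inhibitors versus Tcf-4-driven lines 33.13 and 22C11. IC50s came from the F/R ratio (% of control).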

The mark [1] stands for this setting: SW480, 24 h, Tcf 33.13 cells derived from SW480.
Setting [2] is: Tcf22C11, 24 h, Tcf 22C11 cells derived from SW480.

Counter-ions that a name gives are not always drawn.

Usually melting point stands for the temperature of the solid-liquid transition. Take `Cc1ccc2c(NCc3ccc(NC(=O)c4ccc(Cl)nc4)cc3)nc(N(C)C)nc2c1` (as salt: hydrochloride) [Example 242, 6-chloro-N-[4-({[2-(dimethylamino)-7-methylquinazolin-4-yl]amino}methyl)phenyl]nicotinamide]: the melting point lay in the range of 325 to 329 °C.
On the same count and under the same terms, next, `C#Cc1ccc2c(NCc3ccc(NC(=O)c4ccc(F)cc4)cc3)nc(N(C)C)nc2c1` (as salt: HCl) [Example 108, N-[4-({[2-(dimethylamino)-7-ethynylquinazolin-4-yl]amino}methyl)phenyl]-4-fluorobenzamide]: 250 °C.
What is called IC50 is the point on the concentration scale where inhibition reaches its midpoint. The compound `CNc1nc(NCc2ccc(NC(=O)C3CCN(Cc4ccccc4)CC3)cc2)c2ccc(C)cc2n1` [Example 130, 1-benzyl-N-[4-({[7-methyl-2-(methylamino)quinazolin-4-yl]amino}methyl)phenyl]piperidine-4-carboxamide] showed a melting point of 128 °C. The 50% inhibitory concentration (IC50) in the data set on β-catenin/Tcf-4 (setting [1]) was 699 nM. In the data set on β-catenin/Tcf-4 (setting [2]), the IC50 is 798 nM. For the same compound, in the data set with SV40-Luc, the 50% inhibitory concentration (IC50) is above 2350 nM.
`CN(C)c1nc(NCc2ccc(NC(=O)c3ccc(F)cc3)cc2)c2ccc(-c3ccccc3C=O)cc2n1` (as salt: HCl) [Example 98, N-[4-({[2-(dimethylamino)-7-(2-formylphenyl)quinazolin-4-yl]amino}methyl)phenyl]-4-fluorobenzamide] registered a melting point of 128 °C.
Same read-out and setting: next, `C/C=C\c1ccc2c(NCc3ccc(NC(=O)c4ccc(F)cc4)cc3)nc(N(C)C)nc2c1` (as salt: HCl) [Example 97, N-{4-[({2-(dimethylamino)-7-[(1Z)-prop-1-en-1-yl]quinazolin-4-yl}amino)methyl]phenyl}-4-fluorobenzamide]: 246 °C; `CN(C)c1nc(NCc2ccc(NC(=O)c3ccc(Cl)nc3)cc2)c2ccc(I)cc2n1` (as salt: HCl) [Example 110, 6-chloro-N-[4-({[2-(dimethylamino)-7-iodoquinazolin-4-yl]amino}methyl)phenyl]nicotinamide]: 170 °C.
`CNc1nc(NCc2ccc(NC(=O)c3ccc(Cl)nc3)cc2)c2c(C)cccc2n1` [Example 194, 6-chloro-N-[4-({[5-methyl-2-(methylamino)quinazolin-4-yl]amino}methyl)phenyl]nicotinamide] gave a melting point of 233 to 236 °C. Moreover, the IC50 in the data set on SV40-Luc was above 5780 nM.
The compound `O=C(Nc1ccc(CNc2nc(Cl)nc3cc(I)ccc23)cc1)c1ccc(Cl)nc1` [Example 109, 6-chloro-N-(4-{[(2-chloro-7-iodoquinazolin-4-yl)amino]methyl}phenyl)nicotinamide] displayed a melting point of 315 °C.
Compound `CN(C)Cc1ccc2c(NCc3ccc(NC(=O)c4ccc(F)cc4)cc3)nc(N(C)C)nc2c1` (as salt: HCl) [Example 91, N-{4-[({2-(dimethylamino)-7-[(dimethylamino)methyl]quinazolin-4-yl}amino)methyl]phenyl}-4-fluorobenzamide] showed a melting point of 94 °C.
`CC(=O)c1ccc2c(NCc3ccc(NC(=O)c4ccc(F)cc4)cc3)nc(N(C)C)nc2c1` [Example 94, N-[4-({[7-acetyl-2-(dimethylamino)quinazolin-4-yl]amino}methyl)phenyl]-4-fluorobenzamide]: the melting point is 195 °C. Moreover, the IC50 in the data set with SV40-Luc was above 20200 nM.
With `CN(C)c1nc(NCc2ccc(NC(=O)c3ccc(F)cc3)cc2)c2ccc(CO)cc2n1` (as salt: HCl) [Example 93, N-[4-({[2-(dimethylamino)-7-(hydroxymethyl)quinazolin-4-yl]amino}methyl)phenyl]-4-fluorobenzamide], the melting point came out at 158 °C.
Same read-out and setting: next, `C/C=C/c1ccc2c(NCc3ccc(NC(=O)c4ccc(Cl)nc4)cc3)nc(N(C)C)nc2c1` (as salt: HCl) [Example 112, 6-chloro-N-{4-[({2-(dimethylamino)-7-[(1E)-prop-1-en-1-yl]quinazolin-4-yl}amino)methyl]phenyl}nicotinamide]: 185 °C.
`Cc1ccc2c(NCc3ccc(NC(=O)c4ccc(F)cc4)cc3)nc(N3CCN[C@@H](C)C3)nc2c1` [Example 234, 4-fluoro-N-{4-[({7-methyl-2-[(3S)-3-methylpiperazin-1-yl]quinazolin-4-yl}amino)methyl]phenyl}benzamide] showed a melting point of 200 to 202 °C. Moreover, the IC50 in the data set with SV40-Luc is above 6780 nM.
On to `Cc1ccc2c(NCc3ccc(NC(=O)C4CCN(Cc5ccccc5)CC4)cc3)nc(N(C)C)nc2c1` (as salt: HCl) [Example 129, 1-benzyl-N-[4-({[2-(dimethylamino)-7-methylquinazolin-4-yl]amino}methyl)phenyl]piperidine-4-carboxamide], for which the melting point was found to be 100 °C.
Compound `CNc1nc(NCc2ccc(NC(=O)c3ccc(Cl)cc3)cc2)c2ccc(C)cc2n1` [Example 195, 4-chloro-N-[4-({[7-methyl-2-(methylamino)quinazolin-4-yl]amino}methyl)phenyl]benzamide] returned a melting point of 264 to 266 °C. In addition, the half-maximal inhibitory concentration (IC50) with SV40-Luc was above 1160 nM.
On to `O=C(O)CNc1nc(NCc2ccc(NC(=O)c3ccc(F)cc3)cc2)c2ccccc2n1` (as salt: HCl) [Example 127, N-[4-({4-[(4-fluorobenzoyl)amino]benzyl}amino)quinazolin-2-yl]glycine], for which the melting point worked out at 235 °C.
On the same count and under the same terms, next, `CN(C)c1nc(NCc2ccc(NC(=O)c3ccc(F)cc3)cc2)c2ccc(C#N)cc2n1` (as salt: HCl) [Example 89, N-[4-({[7-cyano-2-(dimethylamino)quinazolin-4-yl]amino}methyl)phenyl]-4-fluorobenzamide]: 150 °C; `C=Cc1ccc2c(NCc3ccc(NC(=O)c4ccc(F)cc4)cc3)nc(N(C)C)nc2c1` (as salt: HCl) [Example 87, N-[4-({[2-(dimethylamino)-7-vinylquinazolin-4-yl]amino}methyl)phenyl]-4-fluorobenzamide]: 145 °C.
`CN(C)c1nc(NCc2ccc(NC(=O)c3ccc(F)cc3)cc2)c2ccc(CN)cc2n1` (as salt: HCl) [Example 90, N-[4-({[7-(aminomethyl)-2-(dimethylamino)quinazolin-4-yl]amino}methyl)phenyl]-4-fluorobenzamide] showed a melting point of 245 °C.
As for `CC(O)c1ccc2c(NCc3ccc(NC(=O)c4ccc(F)cc4)cc3)nc(N(C)C)nc2c1` (stereo not shown) (as salt: HCl) [Example 95, N-[4-({[2-(dimethylamino)-7-(1-hydroxyethyl)quinazolin-4-yl]amino}methyl)phenyl]-4-fluorobenzamide], the melting point amounted to 232 °C.
The compound `CCc1ccc2c(NCc3ccc(NC(=O)c4ccc(F)cc4)cc3)nc(N(C)C)nc2c1` (as salt: HCl) [Example 88, N-[4-({[2-(dimethylamino)-7-ethylquinazolin-4-yl]amino}methyl)phenyl]-4-fluorobenzamide] yielded a melting point of 270 °C.
Still for that read-out and setting: next, `C/C=C/c1ccc2c(NCc3ccc(NC(=O)c4ccc(F)cc4)cc3)nc(N(C)C)nc2c1` (as salt: HCl) [Example 96, N-{4-[({2-(dimethylamino)-7-[(1E)-prop-1-en-1-yl]quinazolin-4-yl}amino)methyl]phenyl}-4-fluorobenzamide]: 268 °C.
For `CCCNc1nc(NCc2ccc(NC(=O)c3ccc(F)cc3)cc2)c2ccc(C)cc2n1` [Example 231, 4-fluoro-N-[4-({[7-methyl-2-(propylamino)quinazolin-4-yl]amino}methyl)phenyl]benzamide], the melting point lay within 170 to 174 °C. Further, the IC50 in the data set with SV40-Luc was above 2820 nM.
With `CN(C)c1nc(NCc2ccc(NC(=O)c3ccc(F)cc3)cc2)c2ccc(-c3cc4ccccc4o3)cc2n1` [Example 101, N-[4-({[7-(1-benzofuran-2-yl)-2-(dimethylamino)quinazolin-4-yl]amino}methyl)phenyl]-4-fluorobenzamide], the half-inhibitory concentration (IC50) in the data set on β-catenin/Tcf-4 (setting [1]) was 2950 nM; with β-catenin/Tcf-4 (setting [2]), 2250 nM; in the data set with SV40-Luc it was above 17600 nM.
The like results for `CN(C)c1nc(NCc2ccc(NC(=O)C3CCN(Cc4ccc(F)cc4)CC3)cc2)c2cc(C(F)(F)F)ccc2n1` [Example 154, N-[4-({[2-(dimethylamino)-6-(trifluoromethyl)quinazolin-4-yl]amino}methyl)phenyl]-1-(4-fluorobenzyl)piperidine-4-carboxamide] were, in that order, 4190 nM, 3590 nM and above 8610 nM.
For `Cc1ccc2c(NCc3ccc(NC(=O)C4CCN(Cc5cccc(F)c5)CC4)cc3)nc(N(C)C)nc2c1` [Example 261, N-[4-({[2-(dimethylamino)-7-methylquinazolin-4-yl]amino}methyl)phenyl]-1-(3-fluorobenzyl)piperidine-4-carboxamide], the IC50 with β-catenin/Tcf-4 (setting [1]) was 328 nM; with β-catenin/Tcf-4 (setting [2]) it was 347 nM; in the data set on SV40-Luc, above 4170 nM.
The like results for `Cc1ccc2nc(N3CCN(c4ccccn4)CC3)nc(NCc3ccc(NC(=O)c4ccc(F)cc4)cc3)c2c1` [Example 55, 4-fluoro-N-[4-({[6-methyl-2-(4-pyridin-2-ylpiperazin-1-yl)quinazolin-4-yl]amino}methyl)phenyl]benzamide] were, in that order, 3260 nM, 8650 nM and above 18300 nM.
